# Test results from patent US11795460B2, “Compositions and methods for TTR gene editing and treating ATTR amyloidosis” (Intellia Therapeutics, Inc., priority 2017, dated 2023).
# Key:
# TTR [1] = test: TTR editing in HEK293_Cas9 cells transfected with dgRNAs (Table 4); assay type: cell-based, human; conditions: HEK293_Cas9 cells (constitutively express Spy Cas9) transfected with dgRNAs
# In short: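 Spy Cas9-expressing HEK293 cells were transfected by lipofection with crRNA (25 nM) plus trRNA (25 nM) and harvested at 24, 48 or 72 h. The target site was PCR-amplified and sequenced on MiSeq. Percent editing is reads with indels or substitutions over total reads.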
# TTR [2] = test: TTR editing in HepG2 cells transfected with Spy Cas9 mRNA and dgRNAs (Table 6); assay type: cell-based, human; conditions: HepG2 cells co-transfected with Spy Cas9 mRNA (SEQ ID NO:2) and dgRNAs
# In short: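 HepG2 cells were transfected sequentially by lipofection with Spy Cas9 mRNA (100 ng), then crRNA plus tracer RNA (25 nM each), and harvested at 24, 48 or 72 h. Editing was measured by amplicon NGS at the TTR target site as the fraction of reads with indels or substitutions.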
# TTR [3] = test: TTR editing in primary human hepatocytes transfected with Spy Cas9 protein (RNP) loaded with dgRNAs (Table 8); assay type: cell-based; conditions: dgRNA transfected with Spy Cas9 protein (RNP)
# In short: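 Primary human hepatocytes were lipofected (RNAiMAX) with RNP of Spy Cas9 (10 nM) plus pre-annealed crRNA (10 nM) and trRNA (10 nM) and harvested 24, 48 or 72 h later. Target-site amplicons were sequenced on Illumina MiSeq and aligned to hg38; percent editing = reads with indels or substitutions over total reads.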
Sequence,Avg % Deletion (TTR [1]),Avg % Edit (TTR [1]),Avg % Insert (TTR [1]),Avg % Deletion (TTR [2]),Avg % Edit (TTR [2]),Avg % Insert (TTR [2]),Avg % Deletion (TTR [3]),Avg % Edit (TTR [3]),Avg % Insert (TTR [3])
"AGUGAGUCUGGAGAGCUGCA (tested as dual guide RNA, chemistry not given here) [CR003359]",19.40%,37.75%,18.35%,15.65%,64.44%,48.79%,8.51%,59.47%,50.96%
"GCAGGGCGGCAAUGGUGUAG (tested as dual guide RNA, chemistry not given here) [CR003380]",44.00%,47.64%,3.64%,2.30%,17.08%,14.78%,0.46%,8.17%,7.71%
"CUGCUCCUCCUCUGCCUUGC (tested as dual guide RNA, chemistry not given here) [CR003335]",21.87%,26.59%,4.73%,4.23%,37.19%,32.96%,1.63%,51.14%,49.51%
"CAUUGAUGGCAGGACUGCCU (tested as dual guide RNA, chemistry not given here) [CR003347]",20.50%,21.45%,0.95%,1.49%,22.57%,21.08%,0.24%,66.35%,66.11%
"AGCCUUUCUGAACACAUGCA (tested as dual guide RNA, chemistry not given here) [CR003351]",21.24%,49.67%,28.42%,25.57%,57.54%,31.98%,16.36%,40.28%,23.92%
"CUUCUCUACACCCAGGGCAC (tested as dual guide RNA, chemistry not given here) [CR003342]",35.38%,36.57%,1.19%,0.28%,11.06%,10.78%,0.81%,20.66%,19.85%
"AAAGUUCUAGAUGCUGUCCG (tested as dual guide RNA, chemistry not given here) [CR003346]",15.30%,48.33%,33.03%,0.05%,0.13%,0.07%,1.84%,4.11%,2.27%
"UUCUUUGGCAACUUACCCAG (tested as dual guide RNA, chemistry not given here) [CR003357]",37.85%,43.23%,5.38%,3.46%,45.83%,42.37%,0.90%,49.35%,48.45%
"CCAGUCCAGCAAGGCAGAGG (tested as dual guide RNA, chemistry not given here) [CR003337]",37.48%,42.72%,5.24%,2.65%,61.93%,59.28%,1.88%,49.43%,47.54%
"GGAGUAGGGGCUCAGCAGGG (tested as dual guide RNA, chemistry not given here) [CR003382]",25.49%,29.95%,4.46%,0.15%,1.73%,1.58%,0.15%,2.44%,2.28%
"CUGAGGAGGAAUUUGUAGAA (tested as dual guide RNA, chemistry not given here) [CR003364]",16.48%,35.65%,19.17%,20.85%,51.88%,31.03%,11.36%,35.29%,23.93%
"CCCAGAGGCAAAUGGCUCCC (tested as dual guide RNA, chemistry not given here) [CR003355]",23.61%,30.60%,6.99%,3.44%,15.80%,12.36%,1.42%,19.11%,17.69%
"AUACCAGUCCAGCAAGGCAG (tested as dual guide RNA, chemistry not given here) [CR003338]",47.66%,52.42%,4.76%,2.60%,68.00%,65.40%,2.22%,61.34%,59.13%
"CCCCUACUCCUAUUCCACCA (tested as dual guide RNA, chemistry not given here) [CR003385]",18.82%,26.19%,7.36%,7.62%,53.94%,46.32%,3.00%,41.15%,38.15%
"UGUAGAAGGGAUAUACAAAG (tested as dual guide RNA, chemistry not given here) [CR003365]",24.61%,36.43%,11.83%,11.11%,46.88%,35.77%,7.54%,47.78%,40.24%
"UACUCACCUCUGCAUGCUCA (tested as dual guide RNA, chemistry not given here) [CR003372]",11.99%,15.24%,3.25%,2.42%,14.57%,12.14%,1.81%,17.56%,15.74%
"AUUGGUGACGACAGCCGUGG (tested as dual guide RNA, chemistry not given here) [CR003389]",23.87%,34.18%,10.30%,4.57%,31.84%,27.27%,0.68%,19.87%,19.19%
